Where “and” joins values, the source holds several entries; their conditions need not be identical. Equal entries are not always repeated. Blank lines part the entries; values can stand above or below the compound they belong to.
Key:
[1] = Sensitivity of rotor fluorescence to pH and ionic strength (NaCl); assay type: physicochemical; conditions: 37 °C, rotor 15 μM; for dependency of fluorescence intensity on NaCl concentration (ionic strength): NaCl 0.1-200 mM, water-glycerol 50%-50%; for dependency of fluorescence intensity on pH: pH 3-8, citric acid/phosphate, water-glycerol 70%-30%
Text: (§1) The fluorescent response spectra of the rotors has been measured by varying four parameters • Viscosity, with water-glycerol solutions with increasing relative concentration (see FIGS. 2A-2D); • Electrostatic and ionic perturbations, with increasing NaCl concentration in a water-glycerol solution (50%-50%) (see FIG. 3A)); • pH, with buffered solutions Citric acid/Phosphate pH; 3<pH<8 in a water-glycerol solution (70%-30%) (see FIG. 3B); and • Molecular density and highly interacting (including hydrophobic) environment using a gradient BSA (bovine serum albumin) (see FIG. 4A-4D).
(§2) The pH was assayed from 3 (corresponding to the most acidic zones) to 8. For viscosity, we used literature data agreeing on apparent values in various cellular media, ranging from 1.5 mPa·s in the cytoplasm up to 140 mPa·s in the vesicles. In our studies, the MR concentration was set to 15 μM under the expected toxicity onset [Haidekker (2010a)]. One key remark, as any fluorescent molecule, signal intensity is also a function of its concentration. It is therefore very important to control the concentration of molecular rotor or, if when impossible, to be able to measure the concentration regardless of the viscosity.

[2] = Excitation-emission matrix (spectral response) of molecular rotors; assay type: physicochemical
Experimental: Excitation wavelength in abscissa, emission in ordinates, in nanometer (nm)). The rotors are diluted in a water/glycerol solution at a concentration 15 μM.
FIGS. 9a-9f: Excitation emission matrices of the molecular rotor DASPI, at temperature 25° C., at concentration 3.3 μM in (a) DMSO (η=2 mPa·s), (b) Ethylene glycol (η=13.5 mPa·s), (c) Glycerol (η=945 mPa·s) and (d,e) Hemoglobin in PBS (1000× dilution, different scale, η=1 mPa·s). The Fluorescence EEM of hemoglobin alone (f) was also measured to give evidence that there is no contribution of hemoglobin in the DASPI range of interest. […] In hemoglobin solutions however (d,e), the emission peak value is lower than in DMSO for similar viscosities because of the high absorbance of the solution.
The excitation-emission matrix of these 4 rotors, diluted in a glycerol/water solution (purely viscous fluid), have been measured using a SYNERGY H1 (Hybrid Multi-Mode reader, BioTek).
In a first step, fluorescence Excitation Emisson Matrices (EMMs) of DASPI were measured in selected solvents, at controlled temperature 25·C: DMSO, Ethylene Glycol, Glycerol and hemoglobin/PBS solutions (dilution 1000×). […] The Fluorescence EEM of hemoglobin alone (dilution 1000× in PBS) was also measured in the DASPI range of interest to give evidence that there is no contribution of hemoglobin in this range (f).

[3] = Fluorescence intensity as a function of viscosity (Förster-Hoffmann equation); assay type: physicochemical
Experimental: FIGS. 10a-10b: Emission peak intensity (fluorescence microscopy, excitation at 488 nm, emission 595±30 nm) of the molecular rotor DASPI at concentration 0.01 mM, 0.1 mM, 1 mM in (left) ethylene glycol/glycerol solutions and (right) aqueous glycerol solutions with increasing viscosity. The solutions temperature was fixed at T=X ° C. The fluorescence intensity increases with the solution viscosity according to the Förster-Hoffmann equation log φ=C+b log η, with solvent-dependent parameters b and C; Ethylene glycol/glycerol solutions: C=94,641,2206± and b=0.69±0.01 and aqueous glycerol solutions: C=74,344,1590± and b=0.70±0.01.
as §1, §2
The second step was to assess the sensitivity of DASPI to the local viscosity of the surrounding medium. More generally, fluorescent MRs photophysical sensitivity depends on their interaction with the environment, characterized by viscosity, polarity and solubility. […] Here we have investigated the DASPI emission intensity (fluorescence microscopy, excitation at 488 nm, emission at 595±30 nm) in ethylene glycol/glycerol solutions (viscosity between 10-200 mPa·s) and aqueous solutions of glycerol (viscosity between 2-200 mPa·s). In each solution, the relative concentration of both solvents was varied to adjust the viscosity of the resulting mixture, at temperature T=X° C. The viscosity was measured in situ by microrheology measurements, just before fluorescence intensity measurements. […]

hemoglobin solutions = target: T1, hemoglobin solutions (Homo sapiens, UniProt P68871+P69905); assay: Emission intensity of rotor in hemoglobin solutions of increasing viscosity; assay type: physicochemical; conditions: viscosity 3.4-9.2 mPa·s, temperature 17-34 °C
T1 construct: The RBC pellet was exposed to 3 freeze-thaw cycles (−80° C. to 37° C.) to lyse RBC membranes; from tissue; host or cells: red blood cells from blood samples (lysate, membranes extracted with CCl4)
Experimental: Red blood cells were washed three times in PBS buffer in order to prepare hemoglobin solutions from blood samples. After a final centrifugation at 1200 g for 10 min, all the supernatant was removed. The RBC pellet was exposed to 3 freeze-thaw cycles (−80° C. to 37° C.) to lyse RBC membranes. Membrane residues were then extracted by addition of CCl4 to the lysate (⅓ of the volume), strong agitation and ultra-centrifugation at 10000 g for 15 min. The hemoglobin concentration in the final solution was measured by colorimetry (MAK 115 Hemoglobin Assay Kit from Sigma-Aldrich).
We studied the emission intensity of tDASMP in hemoglobin solutions of increasing viscosity. The temperature of the sample was varied between 17° C. and 34° C.

red blood cells (RBCs) [4] = assay: Fluorescence of rotor in healthy and glutaraldehyde-stiffened red blood cells (confocal / epi-fluorescence microscopy); assay type: cell-based; conditions: glutaraldehyde 0-2% per volume of cells; 0.4 mM rotor, 1 hour; excitation 488 nm, detection 565-625 nm
Experimental: FIG. 6: Left: Suspension of healthy red blood cells and red blood cells stiffened with glutaraldehyde, in a PBS solution, using confocal microscopy (×40 objective, excitation at 488 nm, detection between 542-626 nm). The molecular rotor tDASMP was introduced into the solution according the protocol described in Example 2.
As a next step towards the rheological characterization of RBCs with MRs, we then imaged a suspension of healthy and artificially rigidified RBCs (by incubation during 10 min in a 1% (v/v) Glutaraldehyde solution in PBS) treated with tDASMP. […] Confocal microscopy allows to measure fluorescence profiles across RBCs.
In a second step, a quantification of the fluorescence response as a function of the degree of rigidification of RBCs can be performed. […]
For visualization, samples were placed between a glass slide and coverslip separated by a 250 μm spacer and initially incubated in a PBS solution supplemented with 1% BSA (Bovine Serum Albumin, Sigma-Aldrich) to prevent RBC adhesion. Observation was made with a Leica microscope in epi-fluorescence mode with excitation at 488 nm and detection at 565-625 nm. Images recorded with a sCMOS fast camera (OrcaFlash4.0 v2+, Hamamatsu Photonics France S.A.R.L., Massy, France) allowed to measure the mean fluorescence intensity of RBCs rescaled by the background fluorescence level.

red blood cells (RBCs) [5] = assay: Penetration and localization of molecular rotor in red blood cells by confocal microscopy; assay type: cell-based; conditions: for penetration of the rotor into RBCs: healthy and rigidified RBCs
Experimental: FIG. 12: Bright field image and confocal z-stacks obtained using confocal microscopy (X40 objective, excitation at 488 nm, detection between 542-626 nm) for three healthy RBCs with different orientations in a 1 mM DASPI solution. The z position of the slices is indicated. […] The mean intensity was measured in the depicted color boxes and each data point corresponds to a confocal slice (0.5 μm distance). As a next step towards the rheological characterization of RBCs with MRs, we then imaged a suspension of healthy and artificially rigidified RBCs (by incubation during 10 min in a 1% (v/v) Glutaraldehyde solution in PBS) treated with […]. Healthy and rigidified RBC suspensions were mixed and the resulting suspension was observed using confocal microscopy with an excitation at 488 nm and detection between 546 nm and 626 nm. An image corresponding to the mid-cross section of the RBC after cells have sedimented on the bottom window of the observation chamber is shown in FIG. 6. […] Confocal microscopy allows to measure fluorescence profiles across RBCs. The localization of the DASPI molecular rotor in healthy red blood cells was studied by confocal microscopy. Confocal images were acquired during the slow sedimentation of the RBCs with different orientations in the observation microchannel. […] Beyond the membrane, in the cytosol, the signal from DASPI was homogeneous in the observation plane, regardless of the z-position and orientation of the cell. Confocal microscopy allows us to unambiguously separate the fluorescence response from the membrane and cytosol. In fact, as soon as the upper and lower membranes are out of the depth of field ( 600 nm), they no longer contribute to the field of vision. […] By scanning the different parts of the red blood cells, we measure that the DASPI fluorescence signal is present throughout the whole red blood cell, over a distance which corresponds approximately (given the depth of field) to the typical known sizes of the red blood cell: diameter 8 μm (b), thickness on the edge 3 μm (a), thickness in the biconcave zone 1 μm (a).

T1 sequence (P69905 2-142 limits assumed): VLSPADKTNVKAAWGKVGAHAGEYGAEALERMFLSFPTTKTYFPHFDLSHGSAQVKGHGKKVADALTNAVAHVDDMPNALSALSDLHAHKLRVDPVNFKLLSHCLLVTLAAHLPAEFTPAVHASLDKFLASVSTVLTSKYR
T1 sequence (P68871 2-147 limits assumed): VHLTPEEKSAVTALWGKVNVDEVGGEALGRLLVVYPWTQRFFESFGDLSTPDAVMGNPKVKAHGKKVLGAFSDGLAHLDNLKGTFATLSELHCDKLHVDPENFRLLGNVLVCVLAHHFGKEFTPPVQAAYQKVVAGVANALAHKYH

dependency of fluorescence intensity on NaCl concentration (ionic strength) [1]: no significant dependency | dependency of fluorescence intensity on pH [1]: no significant dependency
Compound: N#C/C(=C\c1cc2c3c(c1)CCCN3CCC2)C(=O)O [CCVJ, Carboxycyanovinyl-Julolidine]

dependency of fluorescence intensity on NaCl concentration (ionic strength) [1]: no significant dependency | dependency of fluorescence intensity on pH [1]: no significant dependency
Compound: N#CC(C#N)=Cc1cc2c3c(c1)CCCN3CCC2 [DCVJ, Dicyanovinyl-Julolidine]

dependency of fluorescence intensity on NaCl concentration (ionic strength) [1]: no significant dependency | dependency of fluorescence intensity on pH [1]: no significant dependency | excitation/emission peaks ([2]; water/glycerol solution, rotor 15 μM): around 380/440 and 430/490 | excitation/emission peak following the Förster-Hoffmann equation ([3]; water-glycerol solutions, viscosity 1-200 mPa·s): 430/490
Compound: Cc1ccc2c(c1)sc(-c1ccc(N(C)C)cc1)[n+]2C.[Cl-] [Tht, Thioflavine T]

dependency of fluorescence intensity on NaCl concentration (ionic strength) [1]: no significant dependency | dependency of fluorescence intensity on pH [1]: no significant dependency | fluorescence excitation peak ([2]; DMSO, ethylene glycol, glycerol, hemoglobin/PBS, 25 °C, 3.3 μM): around 480 nm | emission ([2]; rotor of Examples 1-2): 580-620 nm | excitation peak ([2]; rotor of Examples 1-2): around 490 nm | Förster-Hoffmann exponent b ([3]; aqueous glycerol solutions, excitation 488 nm, emission 595±30 nm): 0.70±0.01 | Förster-Hoffmann exponent b ([3]; both ethylene glycol/glycerol and glycerol/water solutions): around 0.7 | Förster-Hoffmann exponent b ([3]; ethylene glycol/glycerol solutions, excitation 488 nm, emission 595±30 nm): 0.69±0.01
Compound: CN(C)c1ccc(C=Cc2cc[n+](C)cc2)cc1.[I-] [tDASMP, trans-4-[4-(Dimethylamino)styryl]-1-methylpyridinium iodide]
fluorescence emission intensity versus viscosity of hemoglobin solutions (hemoglobin solutions): increase in fluorescence emission intensity | interference of excitation-emission spectrum with hemoglobin fluorescence ([2]; hemoglobin in PBS, 1000× dilution): does not interfere with the intrinsic hemoglobin fluorescent spectrum | mean fluorescence intensity of RBCs versus RBC rigidity (red blood cells (RBCs) [4]): increasing function of RBC rigidity | distribution of the rotor inside RBCs (red blood cells (RBCs) [5]): uniformly distributed throughout the volume of RBCs | penetration of the rotor into RBCs (red blood cells (RBCs) [5]): able to cross the membrane and penetrate within the RBCs | penetration of the rotor into RBCs (red blood cells (RBCs) [5]; listed as DASPI): spontaneously penetrates into red blood cells
